# Reference: patent publication US20060045910A1, “Preserved fusogenic vesicles” (priority 2004, published 2006)
# System: rat cardiomyocyte cells
# Assay: Uptake of ATP by rat cardiomyocyte cells (FIG. 5)
# Format: cell-based
# Source text: While not wishing to be bound by any specific theory, it is currently believed that the dehydration of the vesicles that occurs during freeze-drying causes more ATP to enter the fusogenic vesicles. In this manner, the preserved and re-hydrated fusogenic vesicles may contain a higher concentration of ATP than their unpreserved counterparts.
smiles,measurement,value
"Nc1ncnc2c1ncn2[C@@H]1O[C@H](COP(=O)(O)OP(=O)(O)OP(=O)(O)O)[C@@H](O)[C@H]1O [unencapsulated ATP, adenosine triphosphate]",uptake of ATP by cells,barely absorbed
